Legend:
Assay type in all cases: in vivo
Spodoptera littoralis = Spodoptera littoralis (Egyptian cotton leafworm) cotton leaf disc spray test; settings: foliar, 72 h, application rate of 200 ppm, cotton leaf discs, L1 larvae, mortality, feeding behavior, growth regulation 3 days after treatment
Source text: Spodoptera littoralis (Egyptian cotton leafworm): Cotton leaf discs were placed on agar in a 24-well microtiter plate and sprayed with test solutions at an application rate of 200 ppm. After drying, the leaf discs were infested with 5 L1 larvae. The samples were checked for mortality, feeding behavior, and growth regulation 3 days after treatment (DAT).

Heliothis virescens = Heliothis virescens (Tobacco budworm) egg/larva test on artificial diet; settings: 96 h, application rate of 200 ppm (concentration in well 18 ppm), eggs 0-24 h old on artificial diet, egg mortality, larval mortality, growth regulation after 4 days
Method: Heliothis virescens (Tobacco budworm): Eggs (0-24 h old) were placed in 24-well microtiter plate on artificial diet and treated with test solutions at an application rate of 200 ppm (concentration in well 18 ppm) by pipetting. After an incubation period of 4 days, samples were checked for egg mortality, larval mortality, and growth regulation.

Plutella xylostella = Plutella xylostella (Diamond back moth) larva test on artificial diet; settings: 144 h, application rate of 200 ppm (concentration in well 18 ppm), L2 larvae, larval mortality and growth regulation after 6 days
Method: (§1) Plutella xylostella (Diamond back moth): 24-well microtiter plate (MTP) with artificial diet was treated with test solutions at an application rate of 200 ppm (concentration in well 18 ppm) by pipetting. After drying, the MTP's were infested with L2 larvae (7-12 per well). After an incubation period of 6 days, samples were checked for larval mortality and growth regulation.

Diabrotica balteata = Diabrotica balteata (Corn root worm) larva test on artificial diet; settings: 120 h, application rate of 200 ppm (concentration in well 18 ppm), L2 larvae, larval mortality and growth regulation after 5 days
Method: as §1, with “Diabrotica balteata (Corn root worm): A” for “Plutella xylostella (Diamond back moth):”, “(6-10” for “(7-12”, “5” for “6”

Thrips tabaci = Thrips tabaci (Onion thrips) sunflower leaf disc spray test; settings: foliar, 168 h, application rate of 200 ppm, sunflower leaf discs, population of mixed ages, mortality after 7 days
Method: Thrips tabaci (Onion thrips): Sunflower leaf discs were placed on agar in a 24-well microtiter plate and sprayed with test solutions at an application rate of 200 ppm. […] After an incubation period of 7 days, samples were checked for mortality.

Tetranychus urticae = Tetranychus urticae (Two-spotted spider mite) bean leaf disc spray test; settings: foliar, 192 h, application rate of 200 ppm, bean leaf discs, mite populations of mixed ages, egg, larval and adult mortality 8 days later
Source text: Tetranychus urticae (Two-spotted spider mite): Bean leaf discs on agar in 24-well microtiter plates were sprayed with test solutions at an application rate of 200 ppm. After drying, the leaf discs are infested with mite populations of mixed ages. 8 days later, discs are checked for egg mortality, larval mortality, and adult mortality.

Myzus persicae = Myzus persicae (Green peach aphid) sunflower leaf disc spray test; settings: foliar, 144 h, application rate of 200 ppm, sunflower leaf discs, aphid population of mixed ages, mortality after 6 DAT
Method: Myzus persicae (Green peach aphid): Sunflower leaf discs were placed on agar in a 24-well microtiter plate and sprayed with test solutions at an application rate of 200 ppm. After drying, the leaf discs were infested with an aphid population of mixed ages. After an incubation period of 6 DAT, samples were checked for mortality.

Measured: pest or weed control at 200 ppm

CCN(C(=O)c1ccc[n+]([O-])c1)c1cccc(C(=O)Nc2c(Br)cc(C(F)(C(F)(F)F)C(F)(F)F)cc2Br)c1F [Compound 13]
≥ 80%: all assays above

CCN(C(=O)c1ccc[n+]([O-])c1)c1cccc(C(=O)Nc2c(Cl)cc(C(F)(C(F)(F)F)C(F)(F)F)cc2Br)c1F [Compound 7]
not listed: Thrips tabaci
≥ 80%: all other assays above

CCCN(C(=O)c1cccnc1)c1cccc(C(=O)Nc2c(Cl)cc(C(F)(C(F)(F)F)C(F)(F)F)cc2Cl)c1 [Compound 8]
not listed: Tetranychus urticae
≥ 80%: all other assays above

CCCN(C(=O)c1ccc[n+]([O-])c1)c1cccc(C(=O)N(C)c2c(Cl)cc(C(F)(C(F)(F)F)C(F)(F)F)cc2Br)c1F [Compound 1, N′-[3-[[2-bromo-6-chloro-4-[1,1,1,2,3,3,3-heptafluoro-prop-2-yl]phenyl]-N′-methyl-carbamoyl]-2-fluoro-phenyl]-N-propyl-1-oxido-pyridin-1-ium-3-carboxamide]
not listed: Heliothis virescens | Diabrotica balteata
≥ 80%: all other assays above

Cc1cc(C(F)(C(F)(F)F)C(F)(F)F)cc(Br)c1N(C)C(=O)c1cccc(N(C)C(=O)c2cccnc2)c1F [Compound 3]
not listed: Tetranychus urticae
≥ 80%: all other assays above

CCN(C(=O)c1cccnc1)c1cccc(C(=O)Nc2c(Br)cc(C(F)(C(F)(F)F)C(F)(F)F)cc2Br)c1F [Compound 11]
≥ 80%: all assays above

CCN(C(=O)c1cccnc1)c1cccc(C(=O)Nc2c(Cl)cc(C(F)(C(F)(F)F)C(F)(F)F)cc2Cl)c1F [Compound 16]
≥ 80%: all assays above

CN(C(=O)c1cccnc1)c1cccc(C(=O)Nc2c(Cl)cc(C(F)(C(F)(F)F)C(F)(F)F)cc2Br)c1F [Compound 4]
not listed: Spodoptera littoralis
≥ 80%: all other assays above

CCCN(C(=O)c1ccc[n+]([O-])c1)c1cccc(C(=O)Nc2c(Cl)cc(C(F)(C(F)(F)F)C(F)(F)F)cc2Cl)c1 [Compound 9]
≥ 80%: Heliothis virescens | Plutella xylostella | Thrips tabaci | Myzus persicae

CN(C(=O)c1cccnc1)c1cccc(C(=O)Nc2c(Br)cc(C(F)(C(F)(F)F)C(F)(F)F)cc2Br)c1F [Compound 12]
≥ 80%: all assays above

CN(C(=O)c1ccc[n+]([O-])c1)c1cccc(C(=O)Nc2c(Cl)cc(C(F)(C(F)(F)F)C(F)(F)F)cc2Br)c1F [Compound 5]
not listed: Thrips tabaci
≥ 80%: all other assays above

CCN(C(=O)c1cccnc1)c1cccc(C(=O)Nc2c(C)cc(C(F)(C(F)(F)F)C(F)(F)F)cc2Cl)c1F [Compound 18]
≥ 80%: all assays above

Cc1cc(C(F)(C(F)(F)F)C(F)(F)F)cc(Cl)c1NC(=O)c1cccc(N(C)C(=O)c2cccnc2)c1F [Compound 17]
≥ 80%: all assays above

CCN(C(=O)c1cccnc1)c1cccc(C(=O)Nc2c(Cl)cc(C(F)(C(F)(F)F)C(F)(F)F)cc2Br)c1F [Compound 6]
≥ 80%: all assays above

CN(C(=O)c1cccnc1)c1cccc(C(=O)N(C)c2c(Br)cc(C(F)(C(F)(F)F)C(F)(F)F)cc2Br)c1 [Compound 15]
not listed: Diabrotica balteata | Tetranychus urticae
≥ 80%: all other assays above

CCc1cc(C(F)(C(F)(F)F)C(F)(F)F)cc(Br)c1N(C)C(=O)c1cccc(N(C)C(=O)c2cccnc2)c1F [Compound 2]
≥ 80%: all assays above

Source: patent US9402395B2, “Insecticidal compounds” (Syngenta Participations AG, priority 2013, dated 2016)
